Reference: patent US20230141887A1, “CRYSTAL FORM OF DIAZASPIROPYRAN COMPOUND” (MEDSHINE DISCOVERY INC., priority 2020, published 2023)

Legend:
[1] = biological target: T1, AXL (Homo sapiens, UniProt P30530); assay: Assay of AXL inhibitory activity in vitro (Promega AXL Kinase Enzyme System, ADP-Glo); assay type: biochemical; details: 50 μmol/L ATP, 30° C., 60 minutes
T1 construct: purchased Promega
T1 sequence (P30530 26-894): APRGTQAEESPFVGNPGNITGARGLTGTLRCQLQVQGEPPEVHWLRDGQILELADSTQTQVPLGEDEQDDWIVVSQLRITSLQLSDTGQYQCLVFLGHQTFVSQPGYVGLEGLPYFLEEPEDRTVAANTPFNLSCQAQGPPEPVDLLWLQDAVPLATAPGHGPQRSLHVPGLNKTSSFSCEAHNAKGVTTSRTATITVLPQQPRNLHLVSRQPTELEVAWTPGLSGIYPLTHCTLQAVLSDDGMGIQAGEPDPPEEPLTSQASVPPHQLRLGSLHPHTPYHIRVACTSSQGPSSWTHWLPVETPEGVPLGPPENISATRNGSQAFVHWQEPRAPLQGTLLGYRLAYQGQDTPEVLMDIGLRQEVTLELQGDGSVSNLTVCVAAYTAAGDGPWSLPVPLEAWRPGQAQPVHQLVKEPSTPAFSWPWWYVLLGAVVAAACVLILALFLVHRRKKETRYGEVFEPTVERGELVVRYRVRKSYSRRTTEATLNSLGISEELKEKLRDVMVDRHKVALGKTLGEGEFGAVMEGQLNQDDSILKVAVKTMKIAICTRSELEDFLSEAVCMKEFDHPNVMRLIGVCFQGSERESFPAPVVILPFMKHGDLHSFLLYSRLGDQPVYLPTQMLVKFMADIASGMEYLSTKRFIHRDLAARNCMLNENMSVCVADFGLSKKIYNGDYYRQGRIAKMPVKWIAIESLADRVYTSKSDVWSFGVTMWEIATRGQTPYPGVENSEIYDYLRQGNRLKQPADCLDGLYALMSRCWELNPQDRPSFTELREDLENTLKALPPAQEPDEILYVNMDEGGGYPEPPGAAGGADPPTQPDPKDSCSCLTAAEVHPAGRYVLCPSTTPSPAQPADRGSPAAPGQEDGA
Procedure: AXL Kinase Enzyme System (kinase system) was purchased from Promega. Envision multi-label Analyzer (PerkinElmer).
The enzyme, substrate, ATP and inhibitors were diluted using the buffer solution in the kit.
The assay was carried out in duplicate. 1 μl of the inhibitors of each concentration gradient, 2 μl of the AXL enzyme (6 ng), and a 2 μl mixture of the substrate and ATP (50 μmol/L ATP, 0.2 μg/μL Axltide) were added to the microplate. […] After the reaction was completed, 5 μL of ADP-Glo reagent was added to each well. The system was further reacted at 30° C. for 40 minutes. After the reaction was completed, 10 μL of kinase detection reagent was added to each well and reacted at 30° C. for 30 minutes. The chemiluminescence was then read by the PerkinElmer Envision multi-label analyzer with an integration time of 0.5 seconds.
(§1) The original data was converted into an inhibition rate, and the IC50 value can be obtained by four-parameter curve fitting.

[2] = tested on: MV-4-11 cells; assay: Assay of inhibiting proliferation of MV-4-11 in vitro (CellTiter-Glo, 3 days); assay type: cell-based, human; details: MV-4-11 cell proliferation
Procedure: IMDM medium, fetal bovine serum, and penicillin/streptomycin antibiotics were purchased from Promega (Madison, Wis.). The MV-4-11 cell line was purchased from the Cell Bank of the Chinese Academy of Sciences. Envision Multi-Label Analyzer (PerkinElmer).
MV-4-11 cells were seeded in a white 96-well plate with 80 μL of cell suspension per well containing 10,000 MV-4-11 cells. The cell plate was cultured overnight in a carbon dioxide incubator.
The compounds to be tested were 5-fold serially diluted with a pipette to obtain eight concentrations, i.e., from 2 mmol/L to 26 nmol/L. The assay was carried out in duplicate. 78 μL of medium was added to the intermediate plate, and then 2 μL per well of the serially diluted compounds were transferred to the intermediate plate according to the corresponding position. After mixing, an amount of 20 μL per well was transferred to the cell plate. The cell plate was cultured in a carbon dioxide incubator for 3 days.
25 μL per well of Promega CellTiter-Glo reagent was added to the cell plate and incubated at room temperature for 10 minutes to stabilize the luminescence signal. A PerkinElmer Envision multi-label analyzer was used for reading.
as §1

[3] = tested on: human biphenotypic B bone marrow mononuclear leukemia cell MV4-11 subcutaneous xenograft tumor; assay: Inhibition of MV4-11 subcutaneous xenograft tumor in vivo; design: species or system nude mice; details: for % Inhibition rate on day 14 / Average tumor volume Day 14: Oral, Once a day
Procedure: In this assay, the anti-tumor effect of the compounds was evaluated using a nude mice model of subcutaneous xenograft tumor of human biphenotypic B bone marrow mononuclear leukemia cell MV4-11.
Human biphenotypic B bone marrow mononuclear leukemia cell MV4-11 was cultured in vitro in suspension with a RPMI1640 medium supplemented with 10% fetal bovine serum, 100 U/mL penicillin and 100 μg/mL streptomycin in a 5% CO2 cell incubator at 37° C. Routine passaging was performed twice a week. Cells in the logarithmic growth phase were collected, counted and then used for inoculation.
0.2 mL (1×10^7) of MV4-11 cells (plus matrigel, with a volume ratio of 1:1) were inoculated subcutaneously on the right back of each mouse. The grouping and dosing were started when the average tumor volume reached about 140-200 mm^3.
The diameter of the tumor was measured with vernier calipers twice a week. The formula for calculating the tumor volume is: V=0.5a×b^2, where a and b represent the long and short diameters of the tumor, respectively.

[4] = In vivo pharmacokinetic assay in dogs; design: species or system Male Beagle dogs; details: 1 mg/kg
Procedure: Male Beagle dogs older than 6 months of age were selected. On the day of the assay, the animals were given the corresponding compound by single injection in the cephalic or saphenous vein in a volume of 1 mL/kg for the intravenous group; and by single gavage in a volume of 5 mL/kg for the oral group. The animals were weighed before administration and the dosing volume of the compound was calculated based on their body weight. About 0.5 mL of whole blood was collected from the cephalic or saphenous vein at each time point to prepare plasma for determination of concentrations by high performance liquid chromatography-tandem mass spectrometry (LC-MS/MS). Plasma concentrations were processed using non-compartment model of WinNonlin™ Version 6.3 or above (Pharsight, Mountain View, Calif.) pharmacokinetic software, and pharmacokinetic parameters were calculated using the linear log trapezoidal method.

## CCc1nc(C(N)=O)c(Nc2ccc(N3CCC4(CCN(C)CC4)CC3)c(C)c2)nc1NC1CCOCC1.O=C(O)C(F)(F)F
[1]
  IC50: 1.22 nM
[2]
  IC50: 3.02 nM
[3]; 1 mg/kg
  % Inhibition rate on day 14: 66.1%
  Average tumor volume Day 14: 375 mm^3
[3]; 1.5 mg/kg
  % Inhibition rate on day 14: 81.0%
  Average tumor volume Day 14: 273 mm^3
[3]; 4.5 mg/kg
  % Inhibition rate on day 14: 114.7%
  Average tumor volume Day 14: 51 mm^3
[3]; Day 0, one value for all groups, before dosing
  Average tumor volume Day 0: 149 mm^3
[4]; Injection
  AUC0-last: 765 nm·h
  Cl: 34.2 mL/min/kg
  T1/2: 9.83 h
  Vdss: 28.9 L/kg
[4]; Oral
  Cmax: 21.1 nM
  F%: 41.6%
  Tmax: 4.00 h
